From publication PMC5218480 (PLoS ONE, 2017) come the findings set out here.

The test system of the assay is MV-4-11 cells. Briefly: Gene expression microarray analysis (Affymetrix PrimeView) and GSEA. To be noted: ProbeSet 11743286_at; LIST D. Further details: RFU PODN (11730768_x_at) / Fold change /veh PODN (11730768_x_at) / RFU LINC00158 (11744669_a_at) / Fold change /veh LINC00158 (11744669_a_at) / RFU DUSP10 (11751237_a_at) / Fold change /veh DUSP10 (11751237_a_at) / RFU ID3 (11757404_x_at) / Fold change /veh ID3 (11757404_x_at) / RFU PLEKHG5 (11737974_s_at) / Fold change /veh PLEKHG5 (11737974_s_at) / RFU LRRC4B (11730491_at) / Fold change /veh LRRC4B (11730491_at) / RFU GIMAP4 (11747438_a_at) / Fold change /veh GIMAP4 (11747438_a_at) / RFU KRT8 (11758183_x_at) / Fold change /veh KRT8 (11758183_x_at) / RFU CNN1 (11734310_a_at) / Fold change /veh CNN1 (11734310_a_at) / RFU VPS37D (11726825_at) / Fold change /veh VPS37D (11726825_at) / RFU C10orf10 (11716522_x_at) / Fold change /veh C10orf10 (11716522_x_at) / RFU KIR2DL2 /// KIR2DL4 /// KIR2DL5A /// KIR2DL5B /// KIR2DS1 /// KIR2DS2 /// KIR2DS3 /// KIR2DS4 /// KIR3DL3 /// KIR3DL3 /// KIR3DS1 (11738374_at) / Fold change /veh KIR2DL2 /// KIR2DL4 /// KIR2DL5A /// KIR2DL5B /// KIR2DS1 /// KIR2DS2 /// KIR2DS3 /// KIR2DS4 /// KIR3DL3 /// KIR3DL3 /// KIR3DS1 (11738374_at) / RFU C1QL1 (11718748_at) / Fold change /veh C1QL1 (11718748_at) / RFU TMPRSS4 (11747572_a_at) / Fold change /veh TMPRSS4 (11747572_a_at) / RFU HAMP (11756126_x_at) / Fold change /veh HAMP (11756126_x_at) / RFU RNFT2 (11725882_a_at) / Fold change /veh RNFT2 (11725882_a_at) / RFU NR4A2 (11747474_a_at) / Fold change /veh NR4A2 (11747474_a_at) / RFU ABCC12 (11746883_a_at) / Fold change /veh ABCC12 (11746883_a_at) / RFU TMEM136 (11760407_x_at) / Fold change /veh TMEM136 (11760407_x_at) / RFU CLDN22 /// WWC2 (11732394_at) / Fold change /veh CLDN22 /// WWC2 (11732394_at) / RFU HLA-DPB1 (11760878_x_at) / Fold change /veh HLA-DPB1 (11760878_x_at) / RFU SPINT1 (11716480_a_at) / Fold change /veh SPINT1 (11716480_a_at) / RFU GAP43 (11754022_s_at) / Fold change /veh GAP43 (11754022_s_at) / RFU A4GNT (11735810_at) / Fold change /veh A4GNT (11735810_at) / RFU PRB3 (11715151_x_at) / Fold change /veh PRB3 (11715151_x_at) / RFU TUBB4B (11761932_at) / Fold change /veh TUBB4B (11761932_at) / RFU CAPN14 (11732068_a_at) / Fold change /veh CAPN14 (11732068_a_at) / RFU TMCC2 (11721928_a_at) / Fold change /veh TMCC2 (11721928_a_at) / RFU IRGQ (11745062_a_at) / Fold change /veh IRGQ (11745062_a_at) / RFU FAM174B (11720279_a_at) / Fold change /veh FAM174B (11720279_a_at) / RFU TMPRSS4 (11748680_a_at) / Fold change /veh TMPRSS4 (11748680_a_at) / RFU FAM212B (11763350_a_at) / Fold change /veh FAM212B (11763350_a_at) / RFU PLEKHG5 (11743358_a_at) / Fold change /veh PLEKHG5 (11743358_a_at) / RFU ZSCAN30 (11745921_a_at) / Fold change /veh ZSCAN30 (11745921_a_at) / RFU CMKLR1 (11741424_a_at) / Fold change /veh CMKLR1 (11741424_a_at) / RFU LOC101060620 /// MAPK8IP1 (11723275_at) / Fold change /veh LOC101060620 /// MAPK8IP1 (11723275_at) / RFU SPTSSB (11747773_x_at) / Fold change /veh SPTSSB (11747773_x_at) / RFU PRSS12 (11739890_at) / Fold change /veh PRSS12 (11739890_at) / RFU BIN1 (11741810_x_at) / Fold change /veh BIN1 (11741810_x_at) / RFU WNT11 (11732464_a_at) / Fold change /veh WNT11 (11732464_a_at) / RFU C10orf10 (11716521_a_at) / Fold change /veh C10orf10 (11716521_a_at) / RFU C5orf56 (11738089_at) / Fold change /veh C5orf56 (11738089_at) / RFU CYB561 (11721691_x_at) / Fold change /veh CYB561 (11721691_x_at) / RFU ANKRD19P (11752326_a_at) / Fold change /veh ANKRD19P (11752326_a_at) / RFU OR2T12 /// OR2T33 /// OR2T8 (11738714_s_at) / Fold change /veh OR2T12 /// OR2T33 /// OR2T8 (11738714_s_at) / RFU VCAN (11748164_a_at) / Fold change /veh VCAN (11748164_a_at) / RFU JSRP1 (11732532_at) / Fold change /veh JSRP1 (11732532_at) / RFU KRTAP10-11 (11738290_x_at) / Fold change /veh KRTAP10-11 (11738290_x_at) / RFU MYO3A (11730013_a_at) / Fold change /veh MYO3A (11730013_a_at) / RFU EBF3 (11725865_a_at) / Fold change /veh EBF3 (11725865_a_at) / RFU CAMK2N1 (11719241_x_at) / Fold change /veh CAMK2N1 (11719241_x_at) / RFU C5orf56 (11738088_a_at) / Fold change /veh C5orf56 (11738088_a_at) / RFU OLFML3 (11715873_a_at) / Fold change /veh OLFML3 (11715873_a_at) / RFU LOC100653217 /// NTM (11731650_a_at) / Fold change /veh LOC100653217 /// NTM (11731650_a_at) / RFU MAPK11 (11762145_a_at) / Fold change /veh MAPK11 (11762145_a_at) / RFU FIZ1 (11724087_x_at) / Fold change /veh FIZ1 (11724087_x_at) / RFU OASL (11726364_x_at) / Fold change /veh OASL (11726364_x_at) / RFU SOX15 (11748057_x_at) / Fold change /veh SOX15 (11748057_x_at) / RFU CD79A (11719716_a_at) / Fold change /veh CD79A (11719716_a_at) / RFU HIST1H1D (11736915_at) / Fold change /veh HIST1H1D (11736915_at) / RFU CASKIN2 (11723855_a_at) / Fold change /veh CASKIN2 (11723855_a_at) / RFU LOC730098 (11760151_x_at) / Fold change /veh LOC730098 (11760151_x_at) / RFU OR4N2 (11742367_at) / Fold change /veh OR4N2 (11742367_at) / RFU PRRT2 (11749266_a_at) / Fold change /veh PRRT2 (11749266_a_at) / RFU SNX32 (11753110_a_at) / Fold change /veh SNX32 (11753110_a_at) / RFU CDHR5 (11726645_a_at) / Fold change /veh CDHR5 (11726645_a_at) / RFU RCAN1 (11760418_a_at) / Fold change /veh RCAN1 (11760418_a_at) / RFU FAM167A (11723789_a_at) / Fold change /veh FAM167A (11723789_a_at) / RFU FAM26E (11764081_at) / Fold change /veh FAM26E (11764081_at) / RFU ISYNA1 (11749810_s_at) / Fold change /veh ISYNA1 (11749810_s_at) / RFU ACY1 (11761880_at) / Fold change /veh ACY1 (11761880_at) / RFU 11764098_at / Fold change /veh 11764098_at / RFU SAMD14 (11745864_x_at) / Fold change /veh SAMD14 (11745864_x_at) / RFU NPB (11741838_a_at) / Fold change /veh NPB (11741838_a_at) / RFU TMPRSS6 (11731388_a_at) / Fold change /veh TMPRSS6 (11731388_a_at) / RFU KRTAP10-2 (11738614_at) / Fold change /veh KRTAP10-2 (11738614_at) / RFU ARHGAP8 /// PRR5-ARHGAP8 (11727945_x_at) / Fold change /veh ARHGAP8 /// PRR5-ARHGAP8 (11727945_x_at) / RFU KRTAP5-7 /// NADSYN1 (11734609_at) / Fold change /veh KRTAP5-7 /// NADSYN1 (11734609_at) / RFU RASL12 (11751679_a_at) / Fold change /veh RASL12 (11751679_a_at) / RFU CDKN2B (11736163_a_at) / Fold change /veh CDKN2B (11736163_a_at) / RFU PRF1 (11729649_at) / Fold change /veh PRF1 (11729649_at) / RFU, ZNF638 /// ZNF638-IT1 / Fold change vs veh, ZNF638 /// ZNF638-IT1 / RFU, PANK3 / Fold change vs veh, PANK3 / RFU, SH3YL1 / Fold change vs veh, SH3YL1 / RFU, ZEB2 / Fold change vs veh, ZEB2 / RFU, NRIP1 / Fold change vs veh, NRIP1 / RFU, PTTG1IP / Fold change vs veh, PTTG1IP / RFU, CAPN2 / Fold change vs veh, CAPN2 / RFU, MED14 / Fold change vs veh, MED14 / RFU, SNORA58 / Fold change vs veh, SNORA58 / RFU, C1orf63 / Fold change vs veh, C1orf63 / RFU, LRRFIP1 / Fold change vs veh, LRRFIP1 / RFU, NDUFAF7 / Fold change vs veh, NDUFAF7 / RFU, SLC12A2 / Fold change vs veh, SLC12A2 / RFU, IBTK / Fold change vs veh, IBTK / RFU, ESF1 / Fold change vs veh, ESF1 / Fold change vs veh, TMEM50B / RFU, TAOK1 / Fold change vs veh, TAOK1 / RFU, ACBD3 / Fold change vs veh, ACBD3 / RFU, TMA16 / Fold change vs veh, TMA16 / RFU, RWDD3 / Fold change vs veh, RWDD3 / RFU, BCAT1 / Fold change vs veh, BCAT1 / RFU, EDEM3 / Fold change vs veh, EDEM3 / RFU, TMEM33 / Fold change vs veh, TMEM33 / RFU, WDR75 / Fold change vs veh, WDR75 / RFU, AHCTF1 / Fold change vs veh, AHCTF1 / RFU, TFRC / Fold change vs veh, TFRC / RFU, ZDHHC17 / Fold change vs veh, ZDHHC17 / RFU, NOM1 / Fold change vs veh, NOM1 / RFU, ARL8B / Fold change vs veh, ARL8B / RFU, ZBTB11 / Fold change vs veh, ZBTB11 / RFU, TAMM41 / Fold change vs veh, TAMM41 / RFU, KIAA1704 /// LOC100996395 / Fold change vs veh, KIAA1704 /// LOC100996395 / RFU, ING1 / Fold change vs veh, ING1 / RFU, TRMT61B / Fold change vs veh, TRMT61B / RFU, FUBP3 / Fold change vs veh, FUBP3 / RFU, TP53 / Fold change vs veh, TP53 / RFU, TNKS2 / Fold change vs veh, TNKS2 / RFU, ZFP14 / Fold change vs veh, ZFP14 / RFU, ACTR2 / Fold change vs veh, ACTR2 / RFU, PPP3R1 / Fold change vs veh, PPP3R1 / RFU, PIK3R1 / Fold change vs veh, PIK3R1 / RFU, HNRNPA1 / Fold change vs veh, HNRNPA1 / RFU, RNF170 / Fold change vs veh, RNF170 / RFU, ZNF28 / Fold change vs veh, ZNF28 / RFU, RNGTT / Fold change vs veh, RNGTT / RFU, OGT / Fold change vs veh, OGT / RFU, BRD1 / Fold change vs veh, BRD1 / RFU, MARS / Fold change vs veh, MARS / RFU, ZNF655 / Fold change vs veh, ZNF655 / RFU, FAHD1 / Fold change vs veh, FAHD1 / RFU, BDP1 / Fold change vs veh, BDP1 / RFU, LRRCC1 / Fold change vs veh, LRRCC1 / RFU, ARID1A / Fold change vs veh, ARID1A / RFU, ZNF146 / Fold change vs veh, ZNF146 / RFU, ZNF330 / Fold change vs veh, ZNF330 / RFU, GPN3 / Fold change vs veh, GPN3 / RFU, C9orf123 / Fold change vs veh, C9orf123 / RFU, N4BP2L2 / Fold change vs veh, N4BP2L2 / RFU, ARFIP1 / Fold change vs veh, ARFIP1 / RFU, FAM179B / Fold change vs veh, FAM179B / RFU, BCL10 / Fold change vs veh, BCL10 / RFU, UHRF1BP1L / Fold change vs veh, UHRF1BP1L / RFU, BET1 / Fold change vs veh, BET1 / RFU, CNOT2 / Fold change vs veh, CNOT2 / RFU, ZNF268 / Fold change vs veh, ZNF268 / Fold change vs veh, ZNF507 / RFU, DGCR2 / Fold change vs veh, DGCR2 / RFU, WDSUB1 / Fold change vs veh, WDSUB1 / Fold change vs veh, HSP90B1 /// MIR3652 / RFU, ADSS / Fold change vs veh, ADSS / RFU, GK / Fold change vs veh, GK / RFU, ZNF148 / Fold change vs veh, ZNF148 / RFU, TAF9 / Fold change vs veh, TAF9 / RFU, SLC1A5 / Fold change vs veh, SLC1A5 / RFU, SLMO2 / Fold change vs veh, SLMO2 / RFU, ABCC4 / Fold change vs veh, ABCC4 / RFU, LOC101060439 /// RAP1B / Fold change vs veh, LOC101060439 /// RAP1B / RFU, RFX7 / Fold change vs veh, RFX7 / RFU, GTPBP10 / Fold change vs veh, GTPBP10 / RFU, CNEP1R1 / Fold change vs veh, CNEP1R1 / RFU, BIVM-ERCC5 /// ERCC5 / Fold change vs veh, BIVM-ERCC5 /// ERCC5 / RFU, ILF3 / Fold change vs veh, ILF3 / RFU 11762660_at / Fold change /veh 11762660_at / RFU VCAN (11757783_s_at) / Fold change /veh VCAN (11757783_s_at) / RFU DDX43 (11728927_at) / Fold change /veh DDX43 (11728927_at) / RFU KRT8 (11758188_x_at) / Fold change /veh KRT8 (11758188_x_at) / RFU NKD1 (11759106_at) / Fold change /veh NKD1 (11759106_at) / RFU SRD5A1 (11742802_a_at) / Fold change /veh SRD5A1 (11742802_a_at) / RFU TPSAB1 /// TPSB2 (11721975_s_at) / Fold change /veh TPSAB1 /// TPSB2 (11721975_s_at) / RFU GSTM3 (11746129_a_at) / Fold change /veh GSTM3 (11746129_a_at) / RFU IL23R (11737362_x_at) / Fold change /veh IL23R (11737362_x_at) / RFU TMEM51 (11727254_a_at) / Fold change /veh TMEM51 (11727254_a_at) / RFU PIWIL2 (11732686_x_at) / Fold change /veh PIWIL2 (11732686_x_at) / RFU ORM1 (11744905_x_at) / Fold change /veh ORM1 (11744905_x_at) / RFU CCDC152 (11743942_at) / Fold change /veh CCDC152 (11743942_at) / RFU ECM1 (11717891_a_at) / Fold change /veh ECM1 (11717891_a_at) / RFU IL23R (11748794_a_at) / Fold change /veh IL23R (11748794_a_at) / RFU TNFAIP8L3 (11732012_x_at) / Fold change /veh TNFAIP8L3 (11732012_x_at) / RFU MBOAT4 (11741988_at) / Fold change /veh MBOAT4 (11741988_at) / RFU 11764193_at / Fold change /veh 11764193_at / RFU TMEM53 (11763286_at) / Fold change /veh TMEM53 (11763286_at) / RFU MAGEB2 (11727129_at) / Fold change /veh MAGEB2 (11727129_at) / RFU TMEM200A (11744735_a_at) / Fold change /veh TMEM200A (11744735_a_at) / RFU CCDC152 (11751479_a_at) / Fold change /veh CCDC152 (11751479_a_at) / RFU FAM211A (11726209_a_at) / Fold change /veh FAM211A (11726209_a_at) / RFU RGS16 (11746705_a_at) / Fold change /veh RGS16 (11746705_a_at) / RFU VCAN (11755009_s_at) / Fold change /veh VCAN (11755009_s_at) / RFU RHOB (11743442_s_at) / Fold change /veh RHOB (11743442_s_at) / RFU RGS16 (11720943_a_at) / Fold change /veh RGS16 (11720943_a_at) / RFU RGS16 (11720944_at) / Fold change /veh RGS16 (11720944_at) / RFU, VPS4B / Fold change vs veh, VPS4B / RFU, CREB1 / Fold change vs veh, CREB1 / RFU, DNAJC13 / Fold change vs veh, DNAJC13 / RFU, GNAQ / Fold change vs veh, GNAQ / RFU, CDK5R1 / Fold change vs veh, CDK5R1 / RFU, ZRANB3 / Fold change vs veh, ZRANB3 / RFU, CUL4A / Fold change vs veh, CUL4A / RFU, CCNY / Fold change vs veh, CCNY / RFU, UFL1 / Fold change vs veh, UFL1 / RFU, COG3 / Fold change vs veh, COG3 / RFU, DIAPH2 / Fold change vs veh, DIAPH2 / RFU, SKA2 / Fold change vs veh, SKA2 / RFU, AFF3 / Fold change vs veh, AFF3 / RFU, LMF1 / Fold change vs veh, LMF1 / RFU, IPO11 / Fold change vs veh, IPO11 / RFU, DFFB / Fold change vs veh, DFFB / RFU, FOXP1 / Fold change vs veh, FOXP1 / RFU, CARD8 / Fold change vs veh, CARD8 / RFU, STRN3 / Fold change vs veh, STRN3 / RFU, ADK / Fold change vs veh, ADK / RFU, RASSF2 / Fold change vs veh, RASSF2 / RFU, WIPF1 / Fold change vs veh, WIPF1 / RFU, LARP1B / Fold change vs veh, LARP1B / RFU, RASA1 / Fold change vs veh, RASA1 / RFU, RB1 / Fold change vs veh, RB1 / RFU, PPFIA1 / Fold change vs veh, PPFIA1 / RFU, MAT2A / Fold change vs veh, MAT2A / RFU, CCT5 / Fold change vs veh, CCT5 / RFU, WDR92 / Fold change vs veh, WDR92 / RFU, CUX1 / Fold change vs veh, CUX1 / RFU, TTC7A / Fold change vs veh, TTC7A / RFU, TMEM135 / Fold change vs veh, TMEM135 / RFU, DEPTOR / Fold change vs veh, DEPTOR / RFU, CPM / Fold change vs veh, CPM / RFU, DNAJB6 / Fold change vs veh, DNAJB6 / RFU, CACNA2D3 / Fold change vs veh, CACNA2D3 / RFU, DTX4 / Fold change vs veh, DTX4 / RFU, TFCP2 / Fold change vs veh, TFCP2 / RFU, GMCL1 /// GMCL1P1 / Fold change vs veh, GMCL1 /// GMCL1P1 / RFU, AEBP2 / Fold change vs veh, AEBP2 / RFU, SNHG1 /// SNORD22 /// SNORD25 /// SNORD26 /// SNORD27 /// SNORD28 /// SNORD29 /// SNORD31 / Fold change vs veh, SNHG1 /// SNORD22 /// SNORD25 /// SNORD26 /// SNORD27 /// SNORD28 /// SNORD29 /// SNORD31 / Fold change (Aza/veh), C12orf56 (ProbeSet 11735607_a_at) / Fold change (ACY-1035/veh), C12orf56 (ProbeSet 11735607_a_at) / Fold change (Aza/veh), FGFR1OP (ProbeSet 11751329_s_at) / Fold change (ACY-1035/veh), FGFR1OP (ProbeSet 11751329_s_at) / Fold change (Aza/veh), VPS36 (ProbeSet 11739960_a_at) / Fold change (ACY-1035/veh), VPS36 (ProbeSet 11739960_a_at) / RFU SYPL1 (11715823_x_at) / Fold change /veh SYPL1 (11715823_x_at) / RFU IGFBP7 (11715501_s_at) / Fold change /veh IGFBP7 (11715501_s_at) / RFU REEP3 (11722064_at) / Fold change /veh REEP3 (11722064_at) / RFU IGLL1 (11728026_x_at) / Fold change /veh IGLL1 (11728026_x_at): dose or concentration left out as unconfirmed. Format: cell-based, human.

For the molecule `Nc1ccc(-c2cccs2)cc1NC(=O)c1ccc2c(c1)cc(C1CC1)n2CCN1CCOCC1` [ACY-1035], the “Fold change vs veh, DTX4” value was 0.97.
